Measurements taken from patent US20210238169A1, “PROCESS FOR PREPARING A COMPOUND OF FORMULA (XIII)” (PULMOCIDE LIMITED, priority 2014, published 2021).
In brackets after ≈: the same amount, converted by molar mass.

What was measured:
[1] = test system: Aspergillus fumigatus (ATCC 13073); assay: Survival of severely immunocompromised, neutropenic mice infected with Aspergillus fumigatus, monotherapy or combination; format: in vivo; conditions: Compound (I) 0.4 mg/mL (in), Posaconazole 1 mg/kg (po), once daily days 1-6
Protocol: On day 0, animals were infected intranasally with 35 μL of the spore suspension (1.67×10^8 spores/mL in physiological saline) of Aspergillus fumigatus (ATCC 13073 [strain: NIH 5233]). Compound (I) prepared as a suspension in isotonic saline (0.4 mg/mL) was dosed once daily by an intra-nasal injection (35 μL/mouse) on days 1-6 after infection. Posaconazole (1 mg/kg) was given orally once daily on days 1-6 after infection. Body weight and survival were monitored daily up to day 7.

[2] = test system: Aspergillus fumigatus (ATCC 13073); assay: Body weight loss of Aspergillus fumigatus infected, immunocompromised, neutropenic mice; format: in vivo; conditions: 0.4 mg/mL intra-nasally, prophylactic; for Body weight loss caused by infection with A. fumigatus: % weight loss compared with day 0
Protocol: (§1) Aspergillus fumigatus (ATCC 13073 [strain: NIH 5233], American Type Culture Collection, Manassas, Va., USA) was grown on Malt agar (Nissui Pharmaceutical, Tokyo, Japan) plates for 6-7 days at RT (24±1° C.). Spores were aseptically dislodged from the agar plates and suspended in sterile distilled water with 0.05% Tween 80 and 0.1% agar. On the day of infection, spore counts were assessed by haemocytometer and the inoculum was adjusted to obtain a concentration of 1.67×10^8 spores mL^−1 of physiological saline.
(§2) On day 0, animals were infected with the spore suspension (35 μL intra-nasally).
(§3) Test compounds were administered intra-nasally (35 μL of a suspension of 0.08-2.00 mg/mL in physiological saline) once daily, 30 min before infection on day 0 and then on days 1, 2 and 3 (representing prophylactic treatment) or on days 1, 2 and 3 only (representing therapeutic treatment). For extended prophylactic treatment, test compounds (35 μL of a suspension of 0.0032 or 0.016 mg/mL in physiological saline) were administered intra-nasally once daily for seven days; then 30 min before infection on day 0, and thereafter, either on days 1, 2 and 3 after infection, or on day 0 only. The effects of these treatment paradigms were compared with those obtained when treatment was restricted to one day and 30 min before inoculation and then on days 1, 2 and 3 post infection; or reduced still further to one day and 30 min before infection only.

[3] = test system: Aspergillus fumigatus (ATCC 13073); assay: In vivo anti-fungal activity: CFU in lung and galactomannan in BALF and serum; parameters: species or system mice; conditions: for ID50, GM in BALF / ID50, GM in serum / ID50, Lung Fungal Load: Prophylactic Regimen
Protocol: as §1, §2
as §3, with “([…])” for “(35 μL of a suspension of 0.08-2.00 mg/mL in physiological saline)”
Six hours after the last dose, animals were anesthetised, the trachea was cannulated and BALF was collected. The total number of alveolar cells was determined using a haemocytometer, and the numbers of alveolar macrophages and neutrophils were determined by FACS analysis (EPICS® ALTRA II, Beckman Coulter, Inc., Fullerton, Calif., USA) using anti-mouse MOMA2-FITC (macrophage) or anti-mouse 7/4 (neutrophil), respectively, as previously reported (Kimura et al., 2013). The levels of IFN-γ and IL-17 in BALF, and IL-6 and TNFα in serum were determined using Quantikine® mouse IFN-γ, IL-17, IL-6 or TNF-α ELISA kit (R&D systems, Inc., Minneapolis, Minn., USA) respectively. MDA, an oxidative stress marker, was assayed using OxiSelect® TBARS Assay Kits (MDA Quantitation; Cell Biolabs Inc, San Diego, Calif., USA). Aspergillus GM in serum was determination using Platelia GM-EIA kits (Bio-Rad Laboratories, Redmond, Wash., USA). Cut-off index was calculated by the formula: Cut-off index=OD in sample/OD in cut-off control provided in kit. For tissue fungal load assays, 100 mg of lung tissue was removed aseptically and homogenized in 0.2 mL of 0.1% agar in sterile distilled water. Serially diluted lung homogenates were plated on Malt agar plates (50 μL/plate), and incubated at 24±1° C. for 72 to 96 h. The colonies of A. fumigatus on each plate was counted and the fungal titre presented as CFU per gram of lung tissue.

[4] = Prophylactic Treatment, 0.08 mg/mL intra-nasally
[5] = Prophylactic Treatment, 0.4 mg/mL intra-nasally
[6] = Prophylactic Treatment, 2 mg/mL intra-nasally
[7] = Therapeutic Treatment, 0.4 mg/mL intra-nasally
[8] = Therapeutic Treatment, 2 mg/mL intra-nasally
[9] = Therapeutic Treatment, 10 mg/mL intra-nasally

Cc1cc(N2CCN(c3ccc(C(=O)Nc4ccc(F)cc4)cc3)CC2)ccc1OC[C@@H]1CO[C@@](Cn2cncn2)(c2ccc(F)cc2F)C1 [Compound (I), 4-(4-(4-(((3R,5R)-5-((1H-1,2,4-triazol-1-yl)methyl)-5-(2,4-difluorophenyl)tetrahydrofuran-3-yl)methoxy)-3-methylphenyl)piperazin-1-yl)-N-(4-fluorophenyl)benzamide]
Median survival [1]: 6 days
No. of survivors on day 7 [1]: 0/6
survivors on day 7 (%) [1]: 0%
% Inhibition of weight loss ([2]; Day 1): 34%
Body weight loss caused by infection with A. fumigatus ([2]; Day 1): 6.1 ± 1.8%
% Inhibition of weight loss ([2]; Day 2): 39%
Body weight loss caused by infection with A. fumigatus ([2]; Day 2): 8.7 ± 2.5%
% Inhibition of weight loss ([2]; Day 3): 42%
Body weight loss caused by infection with A. fumigatus ([2]; Day 3): 11.1 ± 5.6%
ID50, GM in BALF [3]: <80 mg/L
ID50, GM in serum [3]: <80 mg/L
ID50, Lung Fungal Load [3]: 86 mg/L (≈ 126 µM)
CFU in lung [3, 4]: 15.2 ± 13.7 /mg of lung
CFU in lung, % inhibition [3, 4]: 46%
GM in BALF [3, 4]: 0.70 ± 0.39 COI
GM in BALF, % inhibition [3, 4]: 85%
GM in serum [3, 4]: 0.81 ± 0.52 COI
GM in serum, % inhibition [3, 4]: 85%
CFU in lung [3, 5]: 2.1 ± 1.6 /mg of lung
CFU in lung, % inhibition [3, 5]: 93%
GM in BALF [3, 5]: 0.37 ± 0.46 COI
GM in BALF, % inhibition [3, 5]: 92%
GM in serum [3, 5]: 0.24 ± 0.18 COI
GM in serum, % inhibition [3, 5]: 95%
CFU in lung [3, 6]: 0.8 ± 0.7 /mg of lung
CFU in lung, % inhibition [3, 6]: 97%
GM in BALF [3, 6]: 0.13 ± 0.02 COI
GM in BALF, % inhibition [3, 6]: 97%
GM in serum [3, 6]: 0.18 ± 0.07 COI
GM in serum, % inhibition [3, 6]: 97%
CFU in lung [3, 7]: 3.8 ± 1.0 /mg of lung
CFU in lung, % inhibition [3, 7]: 87%
GM in BALF [3, 7]: 0.24 ± 0.06 COI
GM in BALF, % inhibition [3, 7]: 95%
GM in serum [3, 7]: 0.29 ± 0.11 COI
GM in serum, % inhibition [3, 7]: 95%
CFU in lung [3, 8]: 1.9 ± 1.7 /mg of lung
CFU in lung, % inhibition [3, 8]: 93%
GM in BALF [3, 8]: 0.22 ± 0.14 COI
GM in BALF, % inhibition [3, 8]: 95%
GM in serum [3, 8]: 0.25 ± 0.19 COI
GM in serum, % inhibition [3, 8]: 95%
CFU in lung [3, 9]: 0.5 ± 0.3 /mg of lung
CFU in lung, % inhibition [3, 9]: 98%
GM in BALF [3, 9]: 0.11 ± 0.05 COI
GM in BALF, % inhibition [3, 9]: 98%
GM in serum [3, 9]: 0.24 ± 0.11 COI
GM in serum, % inhibition [3, 9]: 95%

CC[C@@H]([C@H](C)O)n1ncn(-c2ccc(N3CCN(c4ccc(OC[C@@H]5CO[C@@](Cn6cncn6)(c6ccc(F)cc6F)C5)cc4)CC3)cc2)c1=O [Posaconazole]
Median survival [1]: 6.5 days
No. of survivors on day 7 [1]: 0/6
survivors on day 7 (%) [1]: 0%
% Inhibition of weight loss ([2]; Day 1): 21%
Body weight loss caused by infection with A. fumigatus ([2]; Day 1): 7.3 ± 2.0%
% Inhibition of weight loss ([2]; Day 2): 6%
Body weight loss caused by infection with A. fumigatus ([2]; Day 2): 13.4 ± 1.9%
% Inhibition of weight loss ([2]; Day 3): 6%
Body weight loss caused by infection with A. fumigatus ([2]; Day 3): 18.1 ± 2.0%
ID50, GM in BALF [3]: 1300 mg/L (≈ 1860 µM)
ID50, GM in serum [3]: 470 mg/L (≈ 671 µM)
ID50, Lung Fungal Load [3]: 240 mg/L (≈ 342 µM)
